Experimental data: patent US20260193249A1, “PREPARATION OF PYRAZOLOPYRIDINE AND TRIAZOLOPYRIDINE DERIVATIVES AS NOVEL DIACYLGLYCERIDE O-ACYLTRANSFERASE 2 INHIBITORS” (Merck Sharp & Dohme LLC, priority 2022, published 2026)

Molecular target: T1, human DGAT2 (Homo sapiens, UniProt Q96PD7)
T1 construct: made in house; host or cells: Sf-9 insect cells (baculovirus), membrane fraction
T1 sequence (Q96PD7 1-388): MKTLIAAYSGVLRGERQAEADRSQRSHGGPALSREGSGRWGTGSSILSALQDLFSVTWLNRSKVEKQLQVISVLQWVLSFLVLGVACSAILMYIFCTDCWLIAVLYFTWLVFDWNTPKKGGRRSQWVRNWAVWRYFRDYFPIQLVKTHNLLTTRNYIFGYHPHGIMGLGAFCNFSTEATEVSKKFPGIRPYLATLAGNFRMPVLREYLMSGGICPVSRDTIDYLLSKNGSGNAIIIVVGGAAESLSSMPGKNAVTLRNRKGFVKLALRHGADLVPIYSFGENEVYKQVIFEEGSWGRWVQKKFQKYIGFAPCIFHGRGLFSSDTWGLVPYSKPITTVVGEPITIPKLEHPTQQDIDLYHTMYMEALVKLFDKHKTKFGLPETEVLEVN
Experiment: DGAT2 Enzymatic Activity Assay
Type: biochemical
Conditions: membrane prep of Sf-9 insect cells expressing hDGAT2; 13C18-triolein product by LC/MS/MS; 25 μM diolein, 5 μM 13C oleoyl-CoA
Description: Sf-9 insect cells were maintained in Grace's insect cell culture medium with 10% heated-inactivated fetal bovine serum, 1% Pluronic F-68 and 0.14 μg/ml Kanamycine sulfate at 27° C. in a shaker incubator. After infection with untagged baculovirus expressing human DGAT2 (hDGAT2) at multiplicity of infection (MOI) 3 for 48 hours, cells were harvested. Cell pellets were suspended in buffer containing 10 mM Tris-HCl pH 7.5, 1 mM EDTA, 250 mM sucrose and Complete Protease Inhibitor Cocktail (Sigma Aldrich), and sonicated on ice. Cell debris were removed by centrifugation at 2000×g for 15 minutes. Membrane fractions were isolated by ultracentrifugation (100,000×g), resuspended in the same buffer, and frozen (−80° C.) for later use. The protein concentration was determined with the Pierce™ BCA Protein Assay Kit (Thermo Fisher Scientific).
LC/MS/MS analyses were performed using Thermal Fisher's LX4-TSQ Vantage system. This system consists of an Agilent binary high-performance liquid chromatography (HPLC) pump and a TSQ Vantage triple quadrupole MS/MS instrument. For each sample, 2 μL samples from the top organic layer of in-plate liquid-liquid extraction were injected onto a Thermo Betabasic C4 column (2.1 mm×20 mm, 5 μm particle size). The samples were then eluted using the following conditions; mobile phase: Isopropanol:acetonitrile/10 mM ammonium formate=50/35/15 (v/v/v), flow rate: 0.8 mL/min, temperature: 25° C. Data was acquired in positive mode using a heated electrospray ionization (HESI) interface. […] The peak area was integrated by Xcalibur Quan software. The ratio between the ^13C18triolein generated in the reaction and spiked in internal standard ^13C21-triolein was used to generate percentage inhibition and IC50 values. Compound percentage inhibition was calculated by the following formula: Inhibition %=1−[(compound response−low control)/(high control−low control)]×100%.
DGAT2 activity was determined by measuring the amount of enzymatic product ^13C18-triolein (^13C-1,2,3-Tri(cis-9-octadecenoyl)glycerol) using the membrane prep mentioned above. The assay was carried out in ABgene 384-well assay plates in a final volume of 25 μL at rt.

Structure (SMILES)	IC50 [µM]
CC1(NC(=O)c2cc3cc(Oc4ncc(F)cc4OC4CC4)ccn3n2)CS(=O)(=O)C1 [Example 12, 5-((3-Cyclopropoxy-5-fluoropyridin-2-yl)oxy)-N-(3-methyl-1,1-dioxidothietan-3-yl)pyrazolo[1,5-a]pyridine-2-carboxamide]	1.8
CC1(NC(=O)c2cc3cc(Oc4ncc(C#N)cc4OCC(F)(F)F)ccn3n2)CCS(=O)(=O)CC1 [Example 42, 5-((5-Cyano-3-(2,2,2-trifluoroethoxy)pyridin-2-yl)oxy)-N-(4-methyl-1,1-dioxidotetrahydro-2H-thiopyran-4-yl)pyrazolo[1,5-a]pyridine-2-carboxamide]	0.02
CC1(NC(=O)c2cc3cc(Oc4ncc(C(O)C(F)(F)F)cc4OCC(F)(F)F)ccn3n2)CS(=O)(=O)C1 (single isomer, unassigned) [Example 45a, N-(3-Methyl-1,1-dioxidothietan-3-yl)-5-((5-(2,2,2-trifluoro-1-hydroxyethyl)-3-(2,2,2-trifluoroethoxy)pyridin-2-yl)oxy)pyrazolo[1,5-a]pyridine-2-carboxamide]	> 9.99
CC(O)c1cnc(Oc2ccn3nc(C(=O)NC4(C)CCS(=O)(=O)CC4)cc3c2)c(OCC(F)(F)F)c1 (single isomer, unassigned) [Example 44b, 5-((5-(1-Hydroxyethyl)-3-(2,2,2-trifluoroethoxy)pyridin-2-yl)oxy)-N-(4-methyl-1,1-dioxidotetrahydro-2H-thiopyran-4-yl)pyrazolo[1,5-a]pyridine-2-carboxamide]	0.332
CC1(NC(=O)c2nn3ccc(Oc4ncc(C#N)cc4OCC(F)(F)F)cc3c2Cl)CCS(=O)(=O)CC1 [Example 41, 3-Chloro-5-((5-cyano-3-(2,2,2-trifluoroethoxy)pyridin-2-yl)oxy)-N-(4-methyl-1,1-dioxidotetrahydro-2H-thiopyran-4-yl)pyrazolo[1,5-a]pyridine-2-carboxamide]	0.005
O=C(NC1CCCN(CC(F)(F)F)C1=O)c1cc2cc(Oc3ncccc3OCC(F)(F)F)ccn2n1 (centres unmarked) [Example 4, N-(2-Oxo-1-(2,2,2-trifluoroethyl)piperidin-3-yl)-5-((3-(2,2,2-trifluoroethoxy)pyridin-2-yl)oxy)pyrazolo[1,5-a]pyridine-2-carboxamide]	0.309
C[C@@]1(NC(=O)c2nn3ccc(Oc4ncc(F)cc4OCC(F)(F)F)cc3c2F)CCS(=O)(=O)C1 [Example 29, (R)-3-Fluoro-5-((5-fluoro-3-(2,2,2-trifluoroethoxy)pyridin-2-yl)oxy)-N-(3-methyl-1,1-dioxidotetrahydrothiophen-3-yl)pyrazolo[1,5-a]pyridine-2-carboxamide]	0.277
C[C@@]1(NC(=O)c2nn3ccc(Oc4ncccc4OCC(F)(F)F)cc3c2F)CCS(=O)(=O)C1 [Example 23, (R)-3-Fluoro-N-(3-methyl-1,1-dioxidotetrahydrothiophen-3-yl)-5-((3-(2,2,2-trifluoroethoxy)pyridin-2-yl)oxy)pyrazolo[1,5-a]pyridine-2-carboxamide]	0.817
CC1(NC(=O)c2cc3cc(Oc4ncccc4OCC(F)(F)F)ccn3n2)CS(=O)(=O)C1 [Example 5, N-(3-Methyl-1,1-dioxidothietan-3-yl)-5-((3-(2,2,2-trifluoroethoxy)pyridin-2-yl)oxy)pyrazolo[1,5-a]pyridine-2-carboxamide]	0.149
CC1(NC(=O)c2nn3ccc(Oc4ncc(Cl)cc4OCC(F)(F)F)cc3c2F)CS(=O)(=O)C1 [Example 37, 5-((5-Chloro-3-(2,2,2-trifluoroethoxy)pyridin-2-yl)oxy)-3-fluoro-N-(3-methyl-1,1-dioxidothietan-3-yl)pyrazolo[1,5-a]pyridine-2-carboxamide]	0.0077
CC1(NC(=O)c2nn3ccc(Oc4ncc(F)cc4OCC(F)(F)F)cc3c2F)CCS(=O)(=O)CC1 [Example 36, 3-Fluoro-5-((5-fluoro-3-(2,2,2-trifluoroethoxy)pyridin-2-yl)oxy)-N-(4-methyl-1,1-dioxidotetrahydro-2H-thiopyran-4-yl)pyrazolo[1,5-a]pyridine-2-carboxamide]	0.0073
CC1(NC(=O)c2nn3ccc(Oc4nccnc4OCC(F)F)cc3c2F)CCS(=O)(=O)CC1 [Example 32, 5-((3-(2,2-Difluoroethoxy)pyrazin-2-yl)oxy)-3-fluoro-N-(4-methyl-1,1-dioxidotetrahydro-2H-thiopyran-4-yl)pyrazolo[1,5-a]pyridine-2-carboxamide]	0.01
CC1(NC(=O)c2nn3ccc(Oc4ncccc4OCC(F)(F)F)cc3c2C(F)F)CCS(=O)(=O)CC1 [Example 49, 3-(Difluoromethyl)-N-(4-methyl-1,1-dioxidotetrahydro-2H-thiopyran-4-yl)-5-((3-(2,2,2-trifluoroethoxy)pyridin-2-yl)oxy)pyrazolo[1,5-a]pyridine-2-carboxamide]	0.973

More lines, now with the values ahead:

IC50 [µM]	Structure (SMILES)
0.006	Cc1cc(Oc2ncc(F)cc2OCC(F)(F)F)cc2cc(C(=O)NC3(C)CCS(=O)(=O)CC3)nn12 [Example 59, 5-((5-Fluoro-3-(2,2,2-trifluoroethoxy)pyridin-2-yl)oxy)-7-methyl-N-(4-methyl-1,1-dioxidotetrahydro-2H-thiopyran-4-yl)pyrazolo[1,5-a]pyridine-2-carboxamide]
0.02	CC1(NC(=O)c2cc3c(F)c(Oc4ncc(F)cc4OCC(F)(F)F)ccn3n2)CCS(=O)(=O)CC1 [Example 56, 4-Fluoro-5-((5-fluoro-3-(2,2,2-trifluoroethoxy)pyridin-2-yl)oxy)-N-(4-methyl-1,1-dioxidotetrahydro-2H-thiopyran-4-yl)pyrazolo[1,5-a]pyridine-2-carboxamide]
0.016	CC1(NC(=O)c2nn3ccc(Oc4ncc(F)cc4OCC(F)(F)F)cc3c2N)CCS(=O)(=O)CC1 [Example 55, 3-Amino-5-((5-fluoro-3-(2,2,2-trifluoroethoxy)pyridin-2-yl)oxy)-N-(4-methyl-1,1-dioxidotetrahydro-2H-thiopyran-4-yl)pyrazolo[1,5-a]pyridine-2-carboxamide]
0.0033	CC1(NC(=O)c2cc3nc(OCc4ncc(Cl)cc4OCC(F)F)ccn3n2)CCS(=O)(=O)CC1 [Example 67, 5-((5-Chloro-3-(2,2-difluoroethoxy)pyridin-2-yl)methoxy)-N-(4-methyl-1,1-dioxidotetrahydro-2H-thiopyran-4-yl)pyrazolo[1,5-a]pyrimidine-2-carboxamide]
1.59	CC(O)c1c(C(=O)NC2(C)CCS(=O)(=O)CC2)nn2ccc(Oc3ncccc3OCC(F)(F)F)cc12 (single isomer, unassigned) [Example 52a, 3-(1-Hydroxyethyl)-N-(4-methyl-1,1-dioxidotetrahydro-2H-thiopyran-4-yl)-5-((3-(2,2,2-trifluoroethoxy)pyridin-2-yl)oxy)pyrazolo[1,5-a]pyridine-2-carboxamide]
0.082	COc1ccc(Cl)c(COc2ccn3nc(C(=O)NC4(C)CCS(=O)(=O)CC4)cc3n2)n1 [Example 70, 5-((3-Chloro-6-methoxypyridin-2-yl)methoxy)-N-(4-methyl-1,1-dioxidotetrahydro-2H-thiopyran-4-yl)pyrazolo[1,5-a]pyrimidine-2-carboxamide]
0.165	O=C(NC1(C(F)F)CCS(=O)(=O)CC1)c1nc2cc(Oc3ncc(Cl)cc3OCC(F)(F)F)ccn2n1 [Example 64, 7-((5-Chloro-3-(2,2,2-trifluoroethoxy)pyridin-2-yl)oxy)-N-(4-(difluoromethyl)-1,1-dioxidotetrahydro-2H-thiopyran-4-yl)-[1,2,4]triazolo[1,5-a]pyridine-2-carboxamide]
